Experimental findings from publication PMC6254723, “Synthesis and Pharmacological Screening of Several Aroyl and Heteroaroyl Selenylacetic Acid Derivatives as Cytotoxic and Antiproliferative Agents” (Molecules, 2009) are described below.

One may read the IC50 as the concentration that gives 50% inhibition. The GI50 is the concentration giving 50% growth inhibition.

Read-outs that look alike come from different tables or passages of the source.

One series deals with PC-3 cell line. Kind of series: MTT cytotoxicity assay in PC-3. The protocol:
The results are tabulated as IC50 values. All experiments were independently performed at least three times and the values were calculated after 72 hours exposure (drug concentrations of 2, 5, 7 and 10 μM).
PC-3 cells were seeded in 96-well plates (Millipore, Eschborn, Germany) at a density of 5 × 10^3 cells per well. The samples were incubated at 37 °C under 5% CO2 overnight prior to the addition of the compounds. Compounds were diluted in complete medium. After 3 days of incubation, 10 μL MTT solution (5 mg/mL in PBS) was added to the cells in each well and these were stored for an additional 4 h at 37 °C. […] The percentage of viable cells was calculated to obtain IC50-values.
PC-3 are human tumorigenic and metastatic prostate cancer cells and these were obtained from American Type Culture Collection (ATCC, Manassas, VA, USA) (passage 36).
Background: Tetrazolium dyes change colour on reduction, which living cells bring about.

Series [1] in a line: MTT toxicity assay in non-malignant mammary gland cells 184B5. As to conditions: human. In kind it is cell-based. The protocol: (§1) In order to investigate the effect of the active compounds in more detail, we examined the activity on proliferation in other cancer cell lines. […] Tests were carried out in the Department of Health Science, Public University of Navarra against a panel of four human tumour cell lines: lung (HTB-54), colon (HT-29), leukaemia (CCRF-CEM) and breast adenocarcinoma (MCF-7). Cytotoxicity assays were performed based on the reactivity of MTT [3-(4,5-dimethylthiazol-2-yl)-2,5-diphenyl-tetrazolium bromide], as described by NCI [39]. […] Doxorubicin was used as a control. As guidance with regard to selectivity, all of the compounds were further examined for toxicity in a mammary gland cell culture derived from non-malignant cells (184B5). Drug concentrations ranged from 0.01 to 100 μM.
(§2) The cytotoxic effects of each substance were tested at five different doses between 0.01 and 100 μM. Each substance was initially dissolved in DMSO at a concentration of 0.1 M, and serial dilutions were prepared using culture medium. The plates with cells from the different lines, to which medium containing the substance under test were added, were incubated for 72 h at 37 °C in a humidified atmosphere containing 5% CO2. European Collection of Cell Cultures (ECACC) or American Type Culture Collection (ATCC) provided human tumour cell lines. Four cell lines were used: one human lymphocytic leukemia (CCRF-CEM) and three human solid tumours, one colon carcinoma (HT-29), one lung carcinoma (HTB-54) and one breast adenocarcinoma (MCF-7). CCRF-CEM, HT-29 and HTB-54 cells were grown in RPMI 1640 medium (Life Technologies, Carlsbad, CA, USA) supplemented with 10% foetal calf serum, 2 mM L-glutamine, 100 units/mL penicillin, 100 μg/mL streptomycin and 10 mM HEPES buffer (pH = 7.4). MCF-7 cells were grown in EMEM medium (Clonetics) supplemented with 10% foetal calf serum, 2 mM L-glutamine, 100 units/mL penicillin and 100 μg/mL streptomycin. 184B5 cells were grown Hams F-12/DMEM (50:50) supplemented as described by Li et al.. Cytotoxicity was then determined by the MTT method. […] Data were obtained from at least three independent experiments performed in quadruplicate.

In another series the test system is 184B5. The description is as above. In kind it is cell-based. As to conditions: for LD50 184B5 / TGI 184B5: 72 h; for LD50 184B5: non-malignant cells, dose that kills 50% of cells; for TGI 184B5: human. The protocol:
as §1, §2

A further series deals with HT-29. Kind of series: MTT cytotoxicity assay (NCI) in HT-29. As to conditions: 72 h; for TGI HT-29: dose that completely inhibits cell growth; for LD50 HT-29: dose that kills 50% of cells; for GI50: Homo sapiens, HT-29, dose that inhibits 50% of cell growth, read-out: GI50 HT-29. In kind it is cell-based, human. The protocol:
as §1, §2

Another series concerns CCRF-CEM. Briefly: MTT cytotoxicity assay (NCI) in CCRF-CEM. As to conditions: 72 h; for TGI CCRF-CEM: dose that completely inhibits cell growth; for LD50 CCRF-CEM: dose that kills 50% of cells; for GI50: Homo sapiens, CCRF-CEM, dose that inhibits 50% of cell growth, read-out: GI50 CCRF-CEM. In kind it is cell-based, human. The procedure: as §1, §2
Another series deals with HTB-54. Briefly: MTT cytotoxicity assay (NCI) in HTB-54. It is filed as cell-based, human. As to conditions: 72 h; for TGI HTB-54: dose that completely inhibits cell growth; for LD50 HTB-54: dose that kills 50% of cells; for GI50: Homo sapiens, HTB-54, dose that inhibits 50% of cell growth, read-out: GI50 HTB-54. The procedure: as §1, §2
The test system of a further series is MCF-7. Briefly: MTT cytotoxicity assay (NCI) in MCF-7. In kind it is cell-based, human. The conditions noted are these: 72 h; for TGI MCF-7: dose that completely inhibits cell growth; for LD50 MCF-7: dose that kills 50% of cells; for GI50: Homo sapiens, MCF7, dose that inhibits 50% of cell growth, read-out: GI50 MCF-7. The protocol: as §1, §2
[2] abbreviates: Homo sapiens, PC-3, 72 h, read-out: IC50 PC-3 cell line.
[3] abbreviates: Homo sapiens, PC-3, read-out: IC50 (cytotoxic activity in PC-3 cell line).
Where [4] appears, read: 72 h exposure, MTT, drug concentrations 2, 5, 7 and 10 μM, NE = no effect is observed.
Setting [5] is: read-out: IC50 PC-3 cell line, 72 h exposure, MTT, drug concentrations 2, 5, 7 and 10 μM, NE = no effect is observed.

As for `O=C(O)C[Se]C(=O)c1cnc2ccccc2c1` [Compound 26, (3-quinoloylselenyl)acetic acid], in the series with PC-3 cell line (setting [2]), the half-maximal inhibitory concentration (IC50) is over 10 µM.
Regarding `Cc1ccc(C(=O)[Se]CC(=O)O)cc1` [Compound 5, (4-methylbenzoylselenyl)acetic acid], the concentration for half-maximal inhibition (IC50) with PC-3 cell line (setting [2]) and with PC-3 cell line (setting [3]) was over 10 µM in each case.
For the compound `COc1cc(C(=O)[Se]CC(=O)O)cc(OC)c1OC` [Compound 15, (3,4,5-trimethoxybenzoylselenyl)acetic acid], the “IC50 PC-3 cell line” value with PC-3 cell line (setting [4]) is reported as “suppression of the antitumour activity”. Besides, the 50% inhibitory concentration (IC50) in the series with PC-3 cell line (setting [2]) and with PC-3 cell line (setting [3]) was over 10 µM in each case.
For `O=C(O)C[Se]C(=O)c1ccccc1Br` [Compound 9, (2-bromobenzoylselenyl)acetic acid], the half-inhibitory concentration (IC50) with PC-3 cell line (setting [2]) and with PC-3 cell line (setting [3]) was over 10 µM each time.
Consider `O=C(O)C[Se]C(=O)c1ccncc1` [Compound 19, (4-pyridoylselenyl)acetic acid], for which the half-maximal inhibitory concentration (IC50) in the series on PC-3 cell line (setting [2]) and in the series with PC-3 cell line (setting [3]) was over 10 µM throughout.
As to `O=C(O)C[Se]C(=O)c1ccc2c(c1)OCO2` [Compound 16, (3,4-methylenedioxy-benzoylselenyl) acetic acid], the IC50 in the series with PC-3 cell line (setting [2]) and with PC-3 cell line (setting [3]) was over 10 µM throughout.
With `O=C(O)C[Se]C(=O)c1cccnc1Cl` [Compound 21, (3-(2-chloro)-pyridoylselenyl)acetic acid], halving of growth in series [1] (GI50 at 72 h) required 0.05 µM. In the series with 184B5, the “LD50 184B5” value was 7.20 µM and the “TGI 184B5” value worked out at 1.89 µM. Besides, in the series on HT-29, the “TGI HT-29” value was 60.94 µM, the “LD50 HT-29” value is over 100 µM and the GI50 stood at 7.53 µM. In addition, in the series on PC-3 cell line (setting [2]), the IC50 was found to be 10 µM. Further, the IC50 in the series with PC-3 cell line (setting [3]) came out at 10 µM. Moreover, in the series with CCRF-CEM, the “TGI CCRF-CEM” value is over 100 µM, the “LD50 CCRF-CEM” value is over 100 µM and the GI50 was over 100 µM. Besides, in the series with HTB-54, the “TGI HTB-54” value was over 100 µM, the “LD50 HTB-54” value was over 100 µM and the concentration for 50% growth inhibition (GI50) came out at 11.8 µM. In the series with MCF-7, the “TGI MCF-7” value was determined as 8.27 µM, the “LD50 MCF-7” value was found to be 89.21 µM and the 50% growth inhibitory concentration (GI50) worked out at 0.003 µM.
Compound `N#Cc1ccc(C(=O)[Se]CC(=O)O)cc1` [Compound 2, (4-cyanobenzoylselenyl)acetic acid] came in with a concentration for 50% growth inhibition (GI50) at 72 h in series [1] of 2.29 µM. Further, in the series with 184B5, the “LD50 184B5” value is 78.91 µM and the “TGI 184B5” value turned out to be 20.14 µM. Further, the “selectivity index (184B5/MCF-7 LD50 ratio)” value in the series on 184B5 (LD50 in 184B5 divided by LD50 in MCF-7) was found to be 3.4. For the same compound, in the series with HT-29, the “TGI HT-29” value came out at 51.95 µM, the “LD50 HT-29” value is over 100 µM and the 50% growth inhibitory concentration (GI50) is 8.95 µM. The IC50 in the series on PC-3 cell line (setting [2]) worked out at 10 µM. In the series with PC-3 cell line (setting [3]), the IC50 stood at 10 µM. Also, in the series with CCRF-CEM, the “TGI CCRF-CEM” value was over 100 µM, the “LD50 CCRF-CEM” value was over 100 µM and the concentration for 50% growth inhibition (GI50) is over 100 µM. For the same compound, in the series with HTB-54, the “TGI HTB-54” value was determined as 9.91 µM, the “LD50 HTB-54” value is over 100 µM and the GI50 was found to be 1.9 µM. In the series with MCF-7, the “TGI MCF-7” value was found to be 6.54 µM, the “LD50 MCF-7” value came out at 23.12 µM and the GI50 is 2.64 µM.
Turning to `COc1cccc2c1C(=O)c1c(O)c3c(c(O)c1C2=O)C[C@@](O)(C(=O)CO)C[C@@H]3O[C@H]1C[C@H](N)[C@H](O)[C@H](C)O1` [Doxorub., doxorubicin, reference compound], in the series on CCRF-CEM, the “TGI CCRF-CEM” value worked out at 0.071 µM, the “LD50 CCRF-CEM” value worked out at 0.29 µM and the 50% growth inhibitory concentration (GI50) was 0.033 µM. For the same compound, in the series on HTB-54, the “TGI HTB-54” value worked out at 1.25 µM, the “LD50 HTB-54” value amounted to 3.45 µM and the GI50 is under 0.01 µM. Also, in the series on MCF-7, the “TGI MCF-7” value was over 100 µM, the “LD50 MCF-7” value was over 100 µM and the 50% growth inhibitory concentration (GI50) is 0.88 µM.
Take `O=C(O)C[Se]C(=O)c1cnccn1` [Compound 24, (pyrazinoylselenyl)acetic acid]: the IC50 in the series on PC-3 cell line (setting [2]) and with PC-3 cell line (setting [3]) was over 10 µM each time.
As to `O=C(O)C[Se]C(=O)c1ccccc1I` [Compound 10, (2-iodobenzoylselenyl)acetic acid], the IC50 with PC-3 cell line (setting [2]) and in the series with PC-3 cell line (setting [3]) was over 10 µM throughout.
Take `O=C(O)C[Se]C(=O)c1ccccc1Cl` [Compound 8, (2-chlorobenzoylselenyl)acetic acid]: the IC50 with PC-3 cell line (setting [2]) and in the series with PC-3 cell line (setting [3]) was over 10 µM in each case.
Take `CCCSc1ncccc1C(=O)[Se]CC(=O)O` [Compound 22, (3-(2-propylthio)pyridoylselenyl)acetic acid]: the IC50 with PC-3 cell line (setting [2]) and in the series with PC-3 cell line (setting [3]) was over 10 µM in each case.
For `O=C(O)C[Se]C(=O)c1cccs1` [Compound 23, (2-thienoylselenyl)-acetic acid], the half-inhibitory concentration (IC50) in the series with PC-3 cell line (setting [2]) and in the series with PC-3 cell line (setting [3]) was over 10 µM each time.
For the compound “(4-methoxyphenylselenyl)acetic acid [Compound 7]”, the “IC50 PC-3 cell line” value in the series on PC-3 cell line (setting [4]) was “inactive”. Also, the IC50 with PC-3 cell line (read-out: IC50 (cytotoxic activity in PC-3 cell line), as repeated in Table 5, NE = no effect) is over 10 µM; with PC-3 cell line (setting [5]), over 10 µM.
`CC(C)(C)c1ccc(C(=O)[Se]CC(=O)O)cc1` [Compound 6, (4-tert-butylbenzoyl-selenyl)acetic acid]: the IC50 in the series on PC-3 cell line (setting [2]) and in the series on PC-3 cell line (setting [3]) was over 10 µM in each case.
`O=C(O)C[Se]C(=O)c1cc(Cl)cc(Cl)c1` [Compound 13, (3,5-dichlorobenzoylselenyl)acetic acid]: the IC50 with PC-3 cell line (setting [2]) and in the series on PC-3 cell line (setting [3]) was over 10 µM throughout.
Consider `O=C(O)C[Se]C(=O)c1cccnc1` [Compound 20, (3-pyridoylselenyl)acetic acid], for which the IC50 with PC-3 cell line (setting [2]) and with PC-3 cell line (setting [3]) was over 10 µM throughout.
For the compound `O=C(O)C[Se]C(=O)c1ccc2ccccc2c1` [Compound 17, (2-naphthoylselenyl)acetic acid], the IC50 with PC-3 cell line (setting [2]) was over 10 µM.
Still for that read-out and setting: under `O=C(O)C[Se]C(=O)c1ccc2ccccc2n1` [Compound 25, (2-quinoloylselenyl)acetic acid] stands over 10 µM; under `O=C(O)C[Se]C(=O)C(c1ccccc1)c1ccccc1` [Compound 18, (diphenylacetylselenyl)acetic acid], over 10 µM.
With `O=C(O)C[Se]C(=O)c1ccc(C(F)(F)F)cc1` [Compound 3, (4-trifluoromethylbenzoylselenyl)acetic acid], the IC50 in the series with PC-3 cell line (setting [2]) and with PC-3 cell line (setting [3]) was over 10 µM in each case.
For `O=C(O)C[Se]C(=O)c1ccc(Cl)cc1` [Compound 4, (4-chlorobenzoylselenyl)acetic acid], the 50% inhibitory concentration (IC50) in the series with PC-3 cell line (setting [2]) and in the series on PC-3 cell line (setting [3]) was over 10 µM each time.
As to “(3-phenyl-propanonylselenyl)acetic acid [Compound 12]”, in the series with PC-3 cell line (setting [5]), the 50% inhibitory concentration (IC50) is over 10 µM.
